± gives the standard deviation of the averaged measurements.
What was measured:
Conditions in all cases: 72 h
[1] = test system: HepG2; assay: cell viability relative to DMSO; higher = less toxic
[2] = test system: Calu-3; assay: as above
[3] = test system: Caco-2; assay: as above
[4] = test system: U2OS; assay: as above
[5] = test system: Vero E6; assay: as above
[6] = test system: HepG2; assay: relative viability EC50 (midpoint between 100% and the lowest measured viability); higher = less toxic
[7] = test system: Calu-3; assay: as above
[8] = test system: Caco-2; assay: as above
[9] = test system: U2OS; assay: as above
[10] = test system: Vero E6; assay: as above
[11] = test system: HepG2; assay: drug sensitivity score (DSS) for viability; higher = more toxic; extreme values may be limits of the assay
[12] = test system: Calu-3; assay: as above
[13] = test system: Caco-2; assay: as above
[14] = test system: U2OS; assay: as above
[15] = test system: Vero E6; assay: as above

SMILES | cell viability ([1]; 1 nM) | cell viability ([1]; 10 nM) | cell viability ([1]; 100 nM) | cell viability ([1]; 1000 nM) | cell viability ([1]; 10000 nM) | cell viability ([2]; 1 nM) | cell viability ([2]; 10 nM) | cell viability ([2]; 100 nM) | cell viability ([2]; 1000 nM) | cell viability ([2]; 10000 nM) | cell viability ([3]; 1 nM) | cell viability ([3]; 10 nM) | cell viability ([3]; 100 nM) | cell viability ([3]; 1000 nM) | cell viability ([3]; 10000 nM) | cell viability ([4]; 1 nM) | cell viability ([4]; 10 nM) | cell viability ([4]; 100 nM) | cell viability ([4]; 1000 nM) | cell viability ([4]; 10000 nM) | cell viability ([5]; 1 nM) | cell viability ([5]; 10 nM) | cell viability ([5]; 100 nM) | cell viability ([5]; 1000 nM) | cell viability ([5]; 10000 nM) | relative viability EC50 [6] | relative viability EC50 [7] | relative viability EC50 [8] | relative viability EC50 [9] | relative viability EC50 [10] | drug sensitivity score [11] | drug sensitivity score [12] | drug sensitivity score [13] | drug sensitivity score [14] | drug sensitivity score [15]
CC(=O)NCCCOc1ccc(C(=O)N2CCC(N3C(=O)CCc4ccccc43)CC2)cc1 | 113% | 92.3% | 116% | 112% | 107% | 81% | 84.4% | 77.8% | 86.9% | 79% | 104% | 90.1% | 76% | 104% | 88.6% | 98% | 100% | 97.3% | 101% | 95.5% | 105% | 92.6% | 95.6% | 104% | 106% | > 10 µM | > 10 µM | > 10 µM | > 10 µM | > 10 µM | 0 | 0 | 0 | 0 | 0
CNCCn1c(=O)c2cc(OC)c(OC)cc2c2cnc3cc4c(cc3c21)OCO4 | 112% | 92.1% | 56.8% | 18.6% | -0.3% | 95.8% | 92.9% | 84.8% | 46.3% | 30.2% | 95.5% | 95.9% | 89.4% | 58% | 9% | 96.1% | 99.5% | 97.3% | 78.9% | 25.9% | 97.6% | 94.7% | 97.9% | 58.6% | 24.6% | 0.149 µM | 0.313 µM | 1.04 µM | 1.44 µM | 0.891 µM | 20.8 | 11.8 | 10 | 7.3 | 9.1
COc1ccc(C2(O)CCC(N3CC[C@@H](NC(=O)CNC(=O)c4cccc(C(F)(F)F)c4)C3)CC2)cn1 (stereo not given in full) | 94.8 ± 12% | 97.7 ± 1.6% | 101 ± 8.1% | 94.8 ± 8.5% | 102 ± 8.6% | 102 ± 13% | 92.8 ± 6.5% | 96.3 ± 4.9% | 97.7 ± 4.2% | 95.2 ± 9.2% | 100 ± 2.3% | 95.3 ± 5.2% | 95.3 ± 2.9% | 100 ± 2.4% | 94.8 ± 5.4% | 99.7 ± 2% | 98.5 ± 1.3% | 98.6 ± 2.7% | 99.4 ± 0.14% | 100 ± 4.2% | 97.7 ± 1.4% | 97.8 ± 5.8% | 97.7 ± 1.3% | 95.8 ± 1.9% | 97.6 ± 3.8% | > 10 µM | > 10 µM | > 10 µM | > 10 µM | > 10 µM | 0 | 0 | 0 | 0 | 0
C[S+]([O-])c1ccc(-c2nc(-c3ccc(F)cc3)c(-c3ccncc3)[nH]2)cc1 (stereo not given) | 104% | 105% | 96.1% | 107% | 91.8% | 106% | 101% | 98.2% | 98.4% | 101% | 111% | 97% | 103% | 95.1% | 84% | 104% | 102% | 102% | 95.5% | 96.9% | 99% | 112% | 97.2% | 110% | 92.3% | > 10 µM | > 10 µM | > 10 µM | > 10 µM | > 10 µM | 0 | 0 | 0.8 | 0 | 0
Cc1c(C(=O)NC2CCCCC2)sc2nc3ccc(N)cc3n12 | 94.1% | 101% | 92.8% | 104% | 107% | 93.7% | 109% | 83.3% | 97.4% | 103% | 105% | 97% | 101% | 103% | 104% | 102% | 94.6% | 96.4% | 98.1% | 102% | 99.4% | 103% | 96.9% | 103% | 107% | > 10 µM | > 10 µM | > 10 µM | > 10 µM | > 10 µM | 0 | 0 | 0 | 0 | 0

Reference: the supplement of paper PMC13380429
